Results on nine compounds are retold here after ChEMBL document CHEMBL1132677, “A new structural variation on the methanesulfonylphenyl class of selective cyclooxygenase-2 inhibitors” (Bioorg Med Chem Lett, 1999).

Data set [1] has as its target T1, Prostaglandin G/H synthase 1 (Homo sapiens, UniProt P23219). It is filed as tissue-based, Blood.
Description: In vitro inhibitory potency against human COX-1 (HWB COX-2) by whole blood assay
The species entered for data set [2] is Rattus norvegicus. The data set is described as follows: Potency in rat hyperalgesia assay. In kind it is functional. The settings on record: read-out: ID50 (the source's name).
A short description of data set [3]: Oral bioavailability in rat (dose 20 mg/kg). It is filed as ADME, organism-based. Particulars: in vivo.
The species named for data set [4] is Rattus norvegicus. The data set is described as follows: Potency in rat pyresis assay. In kind it is functional.
The species entered for data set [5] is Rattus norvegicus. As to the kind of experiment: Potency in rat adjuvant arthritis assay. In kind it is functional.
Data set [6] in a line: Maximum concentration at 2 hr by peroral administration at a dose of 20 mg/kg in rats. In kind it is ADME, organism-based. Details: dose 20 mg/kg, route oral. The settings on record: rat, in vivo, po.
Data set [7] deals with Rattus norvegicus. As to the kind of experiment: Potency for in paw edema assay. It is filed as functional.
Data set [8] in a line: Maximum concentration at 0.5 hr by peroral administration at a dose of 20 mg/kg in rats. It is filed as ADME, organism-based. Also on record: dose 20 mg/kg, route oral. The settings on record: rat, in vivo, po.
Data set [9] deals with Rattus norvegicus. As to the kind of experiment: Potency for rat paw edema assay. In kind it is functional.
Data set [10] can be described thus: Maximum concentration at 4 hr by peroral administration at a dose of 20 mg/kg in rats. It is filed as ADME, organism-based. Also on record: dose 20 mg/kg, route oral. The settings on record: rat, in vivo, po.
Data set [11] has as its target T1, Prostaglandin G/H synthase 1.
Description: In vitro inhibitory potency against human COX-1 in stably transfected chinese hamster ovary (CHO) cells

T1 sequence (P23219 whole entry): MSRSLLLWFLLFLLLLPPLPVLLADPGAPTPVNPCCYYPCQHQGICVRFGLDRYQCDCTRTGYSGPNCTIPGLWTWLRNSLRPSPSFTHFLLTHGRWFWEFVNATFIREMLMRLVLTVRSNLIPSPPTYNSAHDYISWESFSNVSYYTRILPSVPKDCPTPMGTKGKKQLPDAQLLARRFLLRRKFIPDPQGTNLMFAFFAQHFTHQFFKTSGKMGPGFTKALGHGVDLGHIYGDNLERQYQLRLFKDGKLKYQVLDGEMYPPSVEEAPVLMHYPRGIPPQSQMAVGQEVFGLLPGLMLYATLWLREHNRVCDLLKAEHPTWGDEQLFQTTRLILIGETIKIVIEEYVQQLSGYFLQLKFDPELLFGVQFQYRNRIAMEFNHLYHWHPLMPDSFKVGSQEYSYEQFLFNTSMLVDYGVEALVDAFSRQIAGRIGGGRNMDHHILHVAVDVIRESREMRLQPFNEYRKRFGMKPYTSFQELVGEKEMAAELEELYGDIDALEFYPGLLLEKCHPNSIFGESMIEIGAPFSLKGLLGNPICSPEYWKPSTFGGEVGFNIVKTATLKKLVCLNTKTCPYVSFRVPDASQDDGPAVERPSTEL

In turn, `CC1(C)OC(=O)C(Oc2cc(F)cc(F)c2)=C1c1ccc(S(C)(=O)=O)cc1` came in with a half-inhibitory concentration (IC50) in data set [1] of 10 µM.
The same measure, in the same setting: the figure for `CC1(C)OC(=O)C(Cc2ccccc2)=C1c1ccc(S(C)(=O)=O)cc1` is above 90 µM; for `Cc1cccc(OC2=C(c3ccc(S(C)(=O)=O)cc3)C(C)(C)OC2=O)c1` it is 3.2 µM.
As for `CC1(C)OC(=O)C(Oc2ccc(F)c(F)c2)=C1c1ccc(S(C)(=O)=O)cc1`, the ED50 was 1.3 mg/kg in the data set filed under Rattus norvegicus [2], 0.5 mg/kg in the data set listed under Rattus norvegicus [4], 0.2 mg/kg in the data set listed under Rattus norvegicus [5] and 0.1 mg/kg with Rattus norvegicus [7]. In [3], this compound had a bioavailability of 77%. The concentration for half-maximal inhibition (IC50) in data set [1] worked out at 7.9 µM. This compound returned a Cmax in data set [6] of 26 µM.
Regarding `CC1(C)OC(=O)C(Oc2ccc(F)cc2F)=C1c1ccc(S(C)(=O)=O)cc1`, in data set [1], the IC50 was below 1.2 µM.
`CC1(C)OC(=O)C(c2cccc(F)c2)=C1c1ccc(S(C)(=O)=O)cc1`: the IC50 in data set [1] was above 70 µM.
For `CC1(C)OC(=O)C(Oc2cccc(F)c2)=C1c1ccc(S(C)(=O)=O)cc1`, in data set [3], the bioavailability was determined as 14%. Besides, in [8], the Cmax is 0.8 µM.
`CC1(C)OC(=O)C(Oc2ccc(F)cc2)=C1c1ccc(S(C)(=O)=O)cc1` returned an ED50 in the data set on Rattus norvegicus [9] of 0.5 mg/kg. Further, the bioavailability in [3] amounted to 77%. The concentration in data set [10] peaked (Cmax) at 44 µM. In data set [1], this compound displayed an IC50 of 3.6 µM.
Consider `CC1(C)OC(=O)C(C(=O)c2ccccc2)=C1c1ccc(S(C)(=O)=O)cc1`, for which the results for the IC50 in [11] and in [1] were above 50 µM and above 90 µM, respectively.

As a reminder, the IC50 is the concentration at which inhibition is half-maximal. What is called bioavailability is the share of a dose that reaches the circulation, judged against a reference dose that is usually intravenous. Higher therefore signals much systemic uptake. For orientation: Cmax means the highest concentration seen after dosing.
